In assay [1] the target is T1, Receptor-interacting serine/threonine-protein kinase 1 (Homo sapiens) (UniProt Q13546).
T1 sequence (whole entry): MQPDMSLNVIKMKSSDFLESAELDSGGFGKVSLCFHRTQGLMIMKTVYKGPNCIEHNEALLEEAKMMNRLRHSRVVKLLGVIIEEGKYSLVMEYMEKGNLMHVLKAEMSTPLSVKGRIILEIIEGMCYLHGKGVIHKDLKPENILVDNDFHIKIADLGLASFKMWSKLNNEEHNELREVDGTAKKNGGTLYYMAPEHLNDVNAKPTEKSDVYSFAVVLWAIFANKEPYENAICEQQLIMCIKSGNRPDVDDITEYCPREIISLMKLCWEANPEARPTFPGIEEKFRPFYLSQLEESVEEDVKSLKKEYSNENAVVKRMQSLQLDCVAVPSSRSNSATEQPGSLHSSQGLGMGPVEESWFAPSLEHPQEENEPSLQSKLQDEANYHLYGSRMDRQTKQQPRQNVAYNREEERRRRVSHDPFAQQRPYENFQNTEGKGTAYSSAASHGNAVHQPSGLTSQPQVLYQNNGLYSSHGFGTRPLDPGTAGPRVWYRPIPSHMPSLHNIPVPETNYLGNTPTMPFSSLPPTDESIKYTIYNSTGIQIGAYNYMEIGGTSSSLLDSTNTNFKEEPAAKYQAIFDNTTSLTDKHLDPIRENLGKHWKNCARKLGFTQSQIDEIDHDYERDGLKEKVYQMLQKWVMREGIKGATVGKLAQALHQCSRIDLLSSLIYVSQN
As to the kind of experiment: Inhibition of human recombinant RIPK1 at 15 nM in presence of ATP by radiometric assay relative to control.

In assay [2] the target is T2, cGMP-dependent protein kinase 2 (Homo sapiens) (UniProt Q13237).
T2 sequence (whole entry): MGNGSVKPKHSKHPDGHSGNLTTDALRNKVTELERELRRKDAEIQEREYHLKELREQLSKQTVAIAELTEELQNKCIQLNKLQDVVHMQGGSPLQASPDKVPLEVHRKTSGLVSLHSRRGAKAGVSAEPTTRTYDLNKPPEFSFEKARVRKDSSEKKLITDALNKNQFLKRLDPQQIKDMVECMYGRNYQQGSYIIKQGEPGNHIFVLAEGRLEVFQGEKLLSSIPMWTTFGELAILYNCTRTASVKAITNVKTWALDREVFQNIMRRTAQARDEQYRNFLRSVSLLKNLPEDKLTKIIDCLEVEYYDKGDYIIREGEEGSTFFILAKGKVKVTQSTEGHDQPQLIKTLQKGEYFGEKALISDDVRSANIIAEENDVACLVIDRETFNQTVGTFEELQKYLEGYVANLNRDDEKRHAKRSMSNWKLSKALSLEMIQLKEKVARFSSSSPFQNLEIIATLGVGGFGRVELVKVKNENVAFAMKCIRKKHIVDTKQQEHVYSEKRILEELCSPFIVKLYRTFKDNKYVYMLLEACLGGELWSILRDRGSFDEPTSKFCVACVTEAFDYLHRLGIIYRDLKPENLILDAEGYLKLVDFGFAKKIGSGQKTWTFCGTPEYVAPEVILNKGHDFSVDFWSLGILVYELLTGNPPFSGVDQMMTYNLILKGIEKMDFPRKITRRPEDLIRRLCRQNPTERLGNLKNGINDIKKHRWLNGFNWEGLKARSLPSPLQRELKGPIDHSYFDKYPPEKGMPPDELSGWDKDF
As to the kind of experiment: Inhibition of human recombinant PKG2 at 15 nM related to control ULK1.

For assay [3], the target named is Mast/stem cell growth factor receptor Kit (Homo sapiens) (UniProt P10721). The assay can be described thus: Inhibition of human recombinant KIT at 500 nM in presence of ATP by radiometric assay relative to control.
Chain of Mast/stem cell growth factor receptor Kit (Homo sapiens) (P10721 whole entry): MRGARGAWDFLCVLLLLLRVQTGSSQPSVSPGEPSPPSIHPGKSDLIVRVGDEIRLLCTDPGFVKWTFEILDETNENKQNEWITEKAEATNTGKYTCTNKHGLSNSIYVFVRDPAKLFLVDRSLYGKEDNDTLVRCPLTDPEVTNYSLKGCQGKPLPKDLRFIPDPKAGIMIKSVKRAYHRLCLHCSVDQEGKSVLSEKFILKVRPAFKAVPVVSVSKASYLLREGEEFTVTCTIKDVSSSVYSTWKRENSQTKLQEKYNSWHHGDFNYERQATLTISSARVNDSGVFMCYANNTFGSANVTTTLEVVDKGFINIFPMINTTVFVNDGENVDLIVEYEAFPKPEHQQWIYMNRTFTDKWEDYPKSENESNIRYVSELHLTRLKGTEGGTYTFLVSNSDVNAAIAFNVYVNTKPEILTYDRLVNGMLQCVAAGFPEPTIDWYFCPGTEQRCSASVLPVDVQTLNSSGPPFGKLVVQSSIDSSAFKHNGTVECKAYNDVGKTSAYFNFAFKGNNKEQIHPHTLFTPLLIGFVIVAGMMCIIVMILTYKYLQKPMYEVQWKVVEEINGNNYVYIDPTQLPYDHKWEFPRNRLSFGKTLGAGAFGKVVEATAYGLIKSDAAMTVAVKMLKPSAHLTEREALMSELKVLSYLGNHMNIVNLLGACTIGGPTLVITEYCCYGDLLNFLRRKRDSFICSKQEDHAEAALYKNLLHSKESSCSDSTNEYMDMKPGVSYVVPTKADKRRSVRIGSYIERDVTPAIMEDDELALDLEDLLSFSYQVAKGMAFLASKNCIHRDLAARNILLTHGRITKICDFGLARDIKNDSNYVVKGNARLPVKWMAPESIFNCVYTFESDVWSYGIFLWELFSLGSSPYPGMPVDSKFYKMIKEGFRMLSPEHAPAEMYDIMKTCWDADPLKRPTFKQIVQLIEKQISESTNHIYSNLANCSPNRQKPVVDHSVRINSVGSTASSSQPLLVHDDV
Assay [4] concerns the target T3, Serine/threonine-protein kinase ULK2 (Homo sapiens) (UniProt Q8IYT8).
T3 sequence (whole entry): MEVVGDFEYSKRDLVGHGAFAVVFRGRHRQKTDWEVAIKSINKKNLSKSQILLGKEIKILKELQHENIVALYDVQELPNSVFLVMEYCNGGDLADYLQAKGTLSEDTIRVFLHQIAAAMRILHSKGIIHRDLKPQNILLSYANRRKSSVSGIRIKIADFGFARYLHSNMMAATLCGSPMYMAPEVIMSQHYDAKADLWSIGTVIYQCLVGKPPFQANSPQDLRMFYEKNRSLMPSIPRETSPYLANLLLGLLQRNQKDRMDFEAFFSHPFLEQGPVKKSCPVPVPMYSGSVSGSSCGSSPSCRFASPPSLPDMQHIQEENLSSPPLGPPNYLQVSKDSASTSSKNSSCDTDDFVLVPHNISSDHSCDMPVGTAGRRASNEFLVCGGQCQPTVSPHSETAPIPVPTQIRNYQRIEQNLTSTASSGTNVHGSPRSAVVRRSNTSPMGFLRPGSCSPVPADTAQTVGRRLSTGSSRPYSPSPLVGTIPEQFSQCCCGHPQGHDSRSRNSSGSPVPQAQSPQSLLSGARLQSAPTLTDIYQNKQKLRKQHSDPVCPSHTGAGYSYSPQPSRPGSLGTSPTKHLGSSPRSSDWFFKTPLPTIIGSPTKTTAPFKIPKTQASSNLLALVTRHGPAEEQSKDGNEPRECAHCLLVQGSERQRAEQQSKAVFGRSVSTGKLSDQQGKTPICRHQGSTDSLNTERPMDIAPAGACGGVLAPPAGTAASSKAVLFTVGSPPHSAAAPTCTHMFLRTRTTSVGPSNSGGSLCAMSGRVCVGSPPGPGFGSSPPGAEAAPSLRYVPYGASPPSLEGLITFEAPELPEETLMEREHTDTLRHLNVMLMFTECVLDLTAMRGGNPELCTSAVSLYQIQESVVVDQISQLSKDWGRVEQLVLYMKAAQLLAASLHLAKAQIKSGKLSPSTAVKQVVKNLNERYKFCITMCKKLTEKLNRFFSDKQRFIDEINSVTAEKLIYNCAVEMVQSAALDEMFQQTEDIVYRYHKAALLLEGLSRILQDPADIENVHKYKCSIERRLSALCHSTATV
As to the kind of experiment: Inhibition of human recombinant ULK2 at 500 nM in presence of ATP by radiometric assay relative to control.

Assay [5] has as its target Tyrosine-protein kinase BTK (Homo sapiens) (UniProt Q06187). The assay can be described thus: Inhibition of human recombinant BTK at 500 nM related to control ULK1.

SMILES strings stand for the structures.

Inhibition and fold change (FC) data for 2 compounds are collected here from ChEMBL document CHEMBL5653631, “A Potent and Selective ULK1 Inhibitor Suppresses Autophagy and Sensitizes Cancer Cells to Nutrient Stress” (iScience, 2018).

Chain of Tyrosine-protein kinase BTK (Homo sapiens) (Q06187 whole entry): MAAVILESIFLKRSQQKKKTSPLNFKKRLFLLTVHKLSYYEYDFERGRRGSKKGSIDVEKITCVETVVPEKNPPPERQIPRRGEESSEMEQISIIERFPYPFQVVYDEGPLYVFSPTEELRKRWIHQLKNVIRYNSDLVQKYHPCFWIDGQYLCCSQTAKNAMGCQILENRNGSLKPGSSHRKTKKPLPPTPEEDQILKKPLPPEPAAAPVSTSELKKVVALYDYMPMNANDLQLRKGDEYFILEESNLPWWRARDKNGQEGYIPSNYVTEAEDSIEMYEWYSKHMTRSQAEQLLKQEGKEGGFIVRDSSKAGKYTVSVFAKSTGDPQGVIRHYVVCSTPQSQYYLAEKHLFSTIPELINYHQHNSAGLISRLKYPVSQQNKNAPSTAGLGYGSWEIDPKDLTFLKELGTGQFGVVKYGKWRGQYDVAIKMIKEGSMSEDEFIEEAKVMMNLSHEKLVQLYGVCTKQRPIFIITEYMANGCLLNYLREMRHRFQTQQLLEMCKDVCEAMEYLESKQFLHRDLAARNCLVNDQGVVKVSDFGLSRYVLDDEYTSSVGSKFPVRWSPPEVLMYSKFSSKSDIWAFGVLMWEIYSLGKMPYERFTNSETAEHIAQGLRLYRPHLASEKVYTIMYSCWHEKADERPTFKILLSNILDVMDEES

As to `CC(C)[C@H](NC(=O)c1cc(-c2cnn3cc(-c4ccc(OCCN5CCCCC5)cc4)cnc23)cs1)C(F)(F)F`, in assay [1], the inhibition turned out to be 1%. For the same compound, in assay [2], the fold change (FC) worked out at 0.05.

In the case of `CNC(=O)c1ccccc1Oc1nc(Nc2cc(OC)c(OC)c(OC)c2)ncc1Br`, the inhibition in assay [3] came to 1%; in assay [4], 48%. The fold change (FC) in assay [5] turned out to be 0.
